26 compounds from patent US9376436B2, “2-(pyridin-2yl)-1, 7-diaza-spiro [4.4] nonane-6-one compound as voltage-gated sodium channels modulators” (CONVERGENCE PHARMACEUTICALS LIMITED, priority 2011, dated 2016) can be followed below.

Where a name gives a salt, the structure may show the parent alone. Read-outs that look alike come from different tables or passages of the source.

This assay addresses T1, hNaV1.7 (Homo sapiens, UniProt Q15858).
T1 construct: expressed in transfected cells; host or cells: HEK293
The assay can be described thus: QPatch NaV1.7 assay (whole-cell patch clamp, QPatch16x). The note with it: HEK293-hNaV1.7 cells. In kind it is cell-based. The procedure: The compounds of the invention were tested in a QPatch NaV1.7 assay.
HEK293-hNaV1.7 cells were grown in DMEM-F12+10% FBS culture media at 37° C. At a confluency of 50-70% cells were dissociated from culture flasks & triturated to ensure unicellular cell suspension; cell density was measured & adjusted to 2-3×10^6 cells/ml. Recordings were obtained using QPatch16x. The external solution was (in mM): NaCl, 128; KCl, 5; MgCl2, 2; CaCl2, 2; Glucose, 30; HEPES, 15; pH 7.3, 305-315 mOsm. Following seal formation and whole-cell access using internal solution (containing in mM: CsF, 135; EGTA/CsOH, 1/5; HEPES 10; NaCl, 10; pH 7.3, 310-320 mOsM), voltage pulse protocols were applied. Initially a steady state inactivation voltage protocol was used to determine the half-maximal voltage for steady state inactivation (V1/2 SSI). Two holding voltages were used to determine test drug inhibition: −90 mV, where most of the channels are in a closed state; and V1/2 SSI, where half of the channels are inactivated. Currents were elicited […] by stepping to a membrane potential of 0 mV for 20 ms. Four-point cumulative concentration responses were derived by determining the peak current amplitude at each concentration of test drug over 120 second application. Curves were fitted with the Hill equation yielding pIC50 values at −90 mV and V1/2 SSI holding potentials.

The mark [1] stands for this setting: holding voltage V1/2 SSI (half of channels inactivated), read-out: QP Nav1.7 SSI vhalf pIC50 (converted).
[2] abbreviates: holding voltage −90 mV (most channels closed), read-out: QP Nav1.7 −90 mV pIC50 (converted).

T1 sequence (Q15858 whole entry): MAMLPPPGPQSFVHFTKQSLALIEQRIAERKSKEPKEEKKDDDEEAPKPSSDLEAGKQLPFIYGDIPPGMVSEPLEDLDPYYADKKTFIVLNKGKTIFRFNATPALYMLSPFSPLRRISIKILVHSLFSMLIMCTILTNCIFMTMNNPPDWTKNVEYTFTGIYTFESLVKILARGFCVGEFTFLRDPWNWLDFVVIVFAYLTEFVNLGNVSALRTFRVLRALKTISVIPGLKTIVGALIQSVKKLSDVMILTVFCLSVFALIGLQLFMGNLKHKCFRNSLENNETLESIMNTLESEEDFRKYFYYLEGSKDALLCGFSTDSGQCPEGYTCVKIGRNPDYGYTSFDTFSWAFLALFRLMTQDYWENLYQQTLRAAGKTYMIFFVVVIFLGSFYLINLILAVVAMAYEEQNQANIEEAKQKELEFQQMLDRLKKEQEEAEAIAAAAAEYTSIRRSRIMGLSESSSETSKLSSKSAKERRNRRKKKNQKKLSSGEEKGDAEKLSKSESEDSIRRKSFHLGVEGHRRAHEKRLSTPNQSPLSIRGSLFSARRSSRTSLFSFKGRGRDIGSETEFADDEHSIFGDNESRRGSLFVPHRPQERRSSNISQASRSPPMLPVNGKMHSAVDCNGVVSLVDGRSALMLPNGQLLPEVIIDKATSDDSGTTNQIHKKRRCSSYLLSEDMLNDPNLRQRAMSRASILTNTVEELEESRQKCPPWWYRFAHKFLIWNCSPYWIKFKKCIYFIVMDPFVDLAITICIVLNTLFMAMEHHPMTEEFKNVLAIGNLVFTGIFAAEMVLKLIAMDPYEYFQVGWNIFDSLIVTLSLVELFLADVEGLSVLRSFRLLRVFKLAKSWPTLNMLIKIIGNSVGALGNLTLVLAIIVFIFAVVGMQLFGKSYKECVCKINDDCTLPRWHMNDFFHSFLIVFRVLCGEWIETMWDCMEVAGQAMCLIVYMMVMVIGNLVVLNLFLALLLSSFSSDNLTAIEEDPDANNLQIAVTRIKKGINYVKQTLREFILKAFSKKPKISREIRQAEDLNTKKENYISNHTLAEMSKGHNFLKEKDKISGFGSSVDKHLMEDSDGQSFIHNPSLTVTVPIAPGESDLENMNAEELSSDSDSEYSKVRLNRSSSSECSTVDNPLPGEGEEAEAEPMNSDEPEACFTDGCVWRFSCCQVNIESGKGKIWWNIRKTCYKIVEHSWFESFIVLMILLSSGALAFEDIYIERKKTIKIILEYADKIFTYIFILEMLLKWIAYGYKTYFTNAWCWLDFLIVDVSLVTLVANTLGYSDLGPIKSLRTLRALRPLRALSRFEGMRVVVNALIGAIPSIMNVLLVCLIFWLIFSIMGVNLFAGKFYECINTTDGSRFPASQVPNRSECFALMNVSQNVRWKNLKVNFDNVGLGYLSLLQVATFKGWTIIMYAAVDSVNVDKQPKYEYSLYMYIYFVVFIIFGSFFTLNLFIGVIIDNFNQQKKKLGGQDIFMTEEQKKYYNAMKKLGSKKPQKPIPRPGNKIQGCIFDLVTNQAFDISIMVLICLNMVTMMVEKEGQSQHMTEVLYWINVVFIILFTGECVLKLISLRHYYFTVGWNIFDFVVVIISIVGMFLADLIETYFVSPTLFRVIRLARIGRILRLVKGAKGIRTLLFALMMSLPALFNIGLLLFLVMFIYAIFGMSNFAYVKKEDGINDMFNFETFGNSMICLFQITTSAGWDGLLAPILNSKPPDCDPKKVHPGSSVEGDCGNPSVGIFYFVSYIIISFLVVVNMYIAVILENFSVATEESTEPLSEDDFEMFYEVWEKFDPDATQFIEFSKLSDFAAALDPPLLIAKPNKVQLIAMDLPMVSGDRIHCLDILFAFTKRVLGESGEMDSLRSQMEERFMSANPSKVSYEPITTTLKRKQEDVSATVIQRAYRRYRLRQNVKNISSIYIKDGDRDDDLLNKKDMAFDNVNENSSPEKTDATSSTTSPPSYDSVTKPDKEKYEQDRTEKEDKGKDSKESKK

`Cc1cc(-c2ccc(OC(C)C)cc2)cc([C@H]2CC[C@@]3(CCN(C)C3=O)N2)n1` [Example 85, (2R,5S)-2-[4-(4-Isopropoxyphenyl)-6-methyl-2-pyridyl]-7-methyl-1,7-diazaspiro[4.4]nonan-6-one hydrochloride]: the IC50 is, setting by setting: under setting [1], 0.316 µM; under setting [2], 10 µM.

Regarding `CCOc1ccc(-c2cc(C)nc([C@H]3CC[C@@]4(CCN(C)C4=O)N3)c2)cc1` [Example 89, (3R,5S)-3-[4-(4-Ethoxyphenyl)-6-methyl-2-pyridyl]-8-methyl-4,8-diazaspiro[4.4]nonan-9-one hydrochloride], the IC50 runs as follows: under setting [1], 3.16 µM; under setting [2], 50.1 µM.

Turning to `Cc1cc(-c2ccc(OC(C)C)nc2)cc([C@@H]2CC[C@]3(CCN(C)C3=O)N2)n1` [Example 209, (2S,5R)-2-[4-(6-Isopropoxy-3-pyridyl)-6-methyl-2-pyridyl]-7-methyl-1,7-diazaspiro[4.4]nonan-6-one hydrochloride], the IC50 was 3.16 µM under setting [1] and 25.1 µM under setting [2].

As for `O=C1NCCC[C@]12CC[C@H](c1cc(-c3ccc(F)cc3)ccn1)N2` [Example 112, (2R,5S)-2-[4-(4-Fluoro-phenyl)-pyridin-2-yl]-1,7-diaza-spiro[4.5]decan-6-one hydrochloride], the IC50 under setting [1] is 3.98 µM and the IC50 under setting [2] was 39.8 µM.

As for `Cc1cscc1-c1ccnc([C@H]2CC[C@@]3(CCN(C)C3=O)N2)c1` [Example 78, (2R,5S)-7-Methyl-2-[4-(4-methyl-3-thienyl)-2-pyridyl]-1,7-diazaspiro[4.4]nonan-6-one hydrochloride], the IC50 is, setting by setting: under setting [1], 12.6 µM; under setting [2], 158 µM.

On to `CCOc1ccc(F)c(-c2ccnc([C@H]3CC[C@@]4(CCN(C)C4=O)N3)c2C)c1` [Example 215, (2R,5S)-2-[4-(5-Ethoxy-2-fluoro-phenyl)-3-methyl-2-pyridyl]-7-methyl-1,7-diazaspiro[4.4]nonan-6-one hydrochloride], for which the IC50 reads like this: under setting [1], 12.6 µM; under setting [2], 126 µM.

As for `CCOc1ccc(F)c(-c2cc(C)nc([C@@H]3CC[C@@]4(CCN(C)C4=O)N3)c2)c1` [Example 92, (2S,5S)-2-[4-(5-Ethoxy-2-fluoro-phenyl)-6-methyl-pyridin-2-yl]-7-methyl-1,7-diaza-spiro[4.4]nonan-6-one hydrochloride], the IC50 was 2.51 µM under setting [1] and 39.8 µM under setting [2].

Regarding `Cc1cc(-c2cc3c(cc2F)CCO3)cc([C@@H]2CC[C@]3(CCN(C)C3=O)N2)n1` [Example 208, (2S,5R)-2-[4-(5-Fluoro-2,3-dihydrobenzofuran-6-yl)-6-methyl-2-pyridyl]-7-methyl-1,7-diazaspiro[4.4]nonan-6-one hydrochloride], the IC50 by setting is: under setting [1], 100 µM; under setting [2], 158 µM.

As for `COc1cccc(-c2ccnc([C@H]3CC[C@@]4(CCN(C)C4=O)N3)c2)c1Cl` [Example 80, (2R,5S)-2-[4-(2-Chloro-3-methoxy-phenyl)-2-pyridyl]-7-methyl-1,7-diazaspiro[4.4]nonan-6-one hydrochloride], the IC50 was 200 µM under setting [1] and 316 µM under setting [2].

As to `COc1cnc([C@@H]2CC[C@@]3(CCN(C)C3=O)N2)cc1-c1ccc(C(F)(F)F)cc1` [Example 154, (2S,5S)-2-[5-Methoxy-4-[4-(trifluoromethyl)phenyl]-2-pyridyl]-7-methyl-1,7-diazaspiro[4.4]nonan-6-one hydrochloride], the IC50 under setting [1] was 12.6 µM and the IC50 under setting [2] is 100 µM.

Consider `CCOc1ccc(F)c(-c2ccnc([C@@H]3CC[C@@]4(CC(C)(C)NC4=O)N3)c2)c1` [Example 216, (2S,5S)-2-[4-(5-Ethoxy-2-fluoro-phenyl)-2-pyridyl]-8,8-dimethyl-1,7-diazaspiro[4.4]nonan-6-one hydrochloride], for which the IC50 reads like this: under setting [1], 5.01 µM; under setting [2], 31.6 µM.

Regarding `CCc1cccc(-c2cc(C)nc([C@H]3CC[C@@]4(CCN(C)C4=O)N3)c2)c1` [Example 205, (2R,5S)-2-[4-(3-Ethylphenyl)-6-methyl-2-pyridyl]-7-methyl-1,7-diazaspiro[4.4]nonan-6-one hydrochloride], the IC50 is, setting by setting: under setting [1], 6.31 µM; under setting [2], 63.1 µM.

For `CCOc1ccc(F)c(-c2ccnc([C@@H]3CC[C@@]4(CCCNC4=O)N3)c2)c1` [Example 109, (2S,5R)-2-[4-(5-Ethoxy-2-fluoro-phenyl)-pyridin-2-yl]-1,7-diaza-spiro[4.5]decan-6-one hydrochloride], the IC50 under setting [1] is 1 µM and the IC50 under setting [2] was 2 µM.

For the compound `CCOc1ccc(F)c(-c2cc([C@H]3CC[C@@]4(CCN(C)C4=O)N3)nc(C)c2C)c1` [Example 144, (2R,5S)-2-[4-(5-Ethoxy-2-fluoro-phenyl)-5,6-dimethyl-2-pyridyl]-7-methyl-1,7-diazaspiro[4.4]nonan-6-one hydrochloride], the IC50 under setting [1] is 3.98 µM and the IC50 under setting [2] was 31.6 µM.

For the compound `CCOc1ccc(Cl)c(-c2ccnc([C@H]3CC[C@@]4(CCN(C)C4=O)N3)c2)c1` [Example 181, (2R,5S)-2-[4-(2-Chloro-5-ethoxy-phenyl)-2-pyridyl]-7-methyl-1,7-diazaspiro[4.4]nonan-6-one hydrochloride], the IC50 is, setting by setting: under setting [1], 5.01 µM; under setting [2], 100 µM.

Consider `CCOc1ccc(F)c(-c2ccnc([C@@H]3CC[C@@]4(CCN(C)C4=O)N3)c2C)c1` [Example 214, (2S,5S)-2-[4-(5-Ethoxy-2-fluoro-phenyl)-3-methyl-2-pyridyl]-7-methyl-1,7-diazaspiro[4.4]nonan-6-one hydrochloride], for which the IC50 is 3.98 µM under setting [1] and 31.6 µM under setting [2].

For `CCc1ccc(F)c(-c2cc(C)nc([C@H]3CC[C@@]4(CCN(C)C4=O)N3)c2)c1` [Example 204, (2R,5S)-2-[4-(5-Ethyl-2-fluoro-phenyl)-6-methyl-2-pyridyl]-7-methyl-1,7-diazaspiro[4.4]nonan-6-one hydrochloride], the IC50 reads like this: under setting [1], 5.01 µM; under setting [2], 31.6 µM.

In the case of `Cc1cc(-c2ccc(C(F)(F)F)cc2)cc([C@@H]2CC[C@@]3(CCNC3=O)N2)n1` [Example 97, (2S,5S)-2-[6-Methyl-4-[4-(trifluoromethyl)phenyl]-2-pyridyl]-1,7-diazaspiro[4.4]nonan-6-one hydrochloride], the IC50 under setting [1] was 1.26 µM and the IC50 under setting [2] was 20 µM.

Regarding `CN1CC[C@@]2(CC(F)C(c3cc(-c4ccc(C(F)(F)F)cc4)ccn3)N2)C1=O` (single isomer, unassigned) [Example 239], the IC50 was 15.8 µM under setting [1] and 251 µM under setting [2].

With `CC1(C)C[C@]2(CC[C@H](c3cc(-c4ccc(C(F)(F)F)cc4)ccn3)N2)C(=O)N1` [Example 46, (2R,5R)-8,8-Dimethyl-2-[4-[4-(trifluoromethyl)phenyl]-2-pyridyl]-1,7-diazaspiro[4.4]nonan-6-one hydrochloride], the IC50 is 0.794 µM under setting [1] and 10 µM under setting [2].

With `Cc1cc(-c2cc(OC(C)C)ccc2F)cc([C@H]2CC[C@@]3(CCN(C)C3=O)N2)n1` [Example 198, (2R,5S)-2-[4-(2-Fluoro-5-isopropoxy-phenyl)-6-methyl-2-pyridyl]-7-methyl-1,7-diazaspiro[4.4]nonan-6-one hydrochloride], the IC50 is, setting by setting: under setting [1], 5.01 µM; under setting [2], 63.1 µM.

`CN1CC[C@]2(CC[C@@H](c3cc(-c4ccc(C(F)(F)F)cc4)c(OC(C)(C)C)cn3)N2)C1=O` [Example 64, (2S,5R)-2-[5-tert-Butoxy-4-[4-(trifluoromethyl)-phenyl]-2-pyridyl]-7-methyl-1,7-diazaspiro[4.4]nonan-6-one hydrochloride]: the IC50 is 3.16 µM under setting [1] and 50.1 µM under setting [2].

As to `Cc1cc(-c2cccc(OC(F)(F)F)c2)cc([C@@H]2CC[C@]3(CCN(C)C3=O)N2)n1` [Example 128, (2S,5R)-7-Methyl-2-[6-methyl-4-[3-(trifluoromethoxy)phenyl]-2-pyridyl]-1,7-diazaspiro[4.4]nonan-6-one hydrochloride], the IC50 under setting [1] was 5.01 µM and the IC50 under setting [2] was 20 µM.

As for `CCOc1ccc(F)c(-c2cc([C@H]3CC[C@]4(CCN(C)C4=O)N3)ncc2F)c1` [Example 222, (2R,5R)-2-[4-(5-Ethoxy-2-fluoro-phenyl)-5-fluoro-2-pyridyl]-7-methyl-1,7-diazaspiro[4.4]nonan-6-one hydrochloride], the IC50 runs as follows: under setting [1], 25.1 µM; under setting [2], 398 µM.

Turning to `CN1CCC[C@@]2(CC[C@@H](c3cc(-c4ccc(C(F)(F)F)cc4)ccn3)N2)C1=O` [Example 68, (2S,5R)-7-Methyl-2-[4-(4-trifluoromethyl-phenyl)-pyridin-2-yl]-1,7-diaza-spiro[4.5]decan-6-one hydrochloride], the IC50 runs as follows: under setting [1], 5.01 µM; under setting [2], 25.1 µM.

In the case of `CN1CC[C@@]2(CC[C@H](c3cc(-c4ccc(C(F)(F)F)cc4)ccn3)N2C)C1=O` [Example 225, (2R,5S)-1,7-Dimethyl-2-[4-[4-(trifluoromethyl)phenyl]-2-pyridyl]-1,7-diazaspiro[4.4]nonan-6-one hydrochloride], the IC50 under setting [1] is 25.1 µM and the IC50 under setting [2] was 251 µM.
